Source: US4824855A, “1,4-dihydropyridine derivatives” (Sanwa Kagaku Kenkyusho Co., Ltd., priority 1985, dated 1989)
“Also recorded” adds a separate entry of the source. Where two headings read alike, the source gives them in different places.

Legend:
[1] = test system: spiral strip of New Zealand white rabbit aorta; experiment: Ca antagonistic effect (Magnus method, Ca-induced contraction after K depolarization); format: cell-based
Experimental: Ca antagonistic effect was examined on a spiral strip of New Zealand white rabbit aorta with the Magnus method. The response of preparations was recorded isometically on a recorder. […] The data given in following Table 1 are presented as inhibitory % to concentration without the compound.

diastolic blood pressure = experiment: Effect of compounds on diastolic blood pressure in anesthetized dogs; format: in vivo, mongrel dogs; details: 1 μg/kg, i.v.
Experimental: (§1) An experiment was carried out by anesthetizing adult male and female mongrel dogs (weight; 10-20 kg) with Nembutal (30 mg/kg i.p.) and artificially respiring (20 ml/kg/stroke, 20 strokes/min) the animals.
(§2) Right vertebral and femoral arteries were exposed and each probe of electro-magnetic flow meter was fitted therein to measure vertebral and femoral arterial blood flow. A cannula was inserted into descending aorta from left femoral artery in order to measure blood pressure by pressure transducer connected to amplifier. Each of test compounds dissolved in 50% ethanol solution (1 μg/kg, i.v.) was administered from the cannula into cephlic vein.

left atrium = experiment: Negative inotropic effect on electrically driven left atrium; format: cell-based, New Zealand white rabbit; details: Oryctolagus cuniculus; for inhibition at 100 µM: Concentration of the compound 10^-4 mol; for inhibition at 10 µM: Concentration of the compound 10^-5 mol; for IC50: read-out: ID50 (× 10^-4)
Experimental: New Zealand white rabbit was killed by bleeding from the carotid artery and the left atrium was quickly removed. […] The response of preparations was recorded isometically on a recorder. The initial tension applied to the preparation was adjusted to 1 g.

[2] = Acute toxicity (oral, Litchfield-Wilcoxon method); details: mouse, in vivo, dd mice, observation for 72 hours
Experimental: Male and female dd mice were used (weight: 18-20 g). Each of compounds to be tested was dissolved in 1% Nikkol and administered directly into stomach by forced oral administration and with use of a metal sonde. LD50 of the compounds were calculated by Litchfield-Wilcoxon method, after observation for 72 hours.

[3] = test system: vertebral arterial blood flow; experiment: Effect of compounds on vertebral arterial blood flow in anesthetized dogs; format: in vivo, mongrel dogs; details: 1 μg/kg, i.v.
Experimental: as §1, §2

[4] = test system: femoral arterial blood flow; experiment: Effect of compounds on femoral arterial blood flow in anesthetized dogs; format: in vivo, mongrel dogs; details: 1 μg/kg, i.v.
Experimental: as §1, §2

[5] = test system: spontaneously hypertensive male rats; experiment: Blood pressure depressing action (systolic pressure); format: in vivo; details: 3.0 mg/kg oral
Description: The testing or control compound was orally administered to the indicated number (N) of spontaneously hypertensive male rats (15 or more weeks old).

[6] = test system: vertebral arterial blood flow; experiment: Vertebral and femoral arterial blood flow increasing action (ED50); format: in vivo; details: Canis lupus familiaris, iv; amount required to increase the vertebral arterial blood flow by 50%, anesthetized dogs
Experimental: The bloodflow increasing action of the compounds was measured on anesthetized dogs, in a manner similar to that of Pharmaceutical Test Example 3, to obtain the results shown in Table 6 below:
ED50 in the Table indicates the amount of the compound required to increase the vertebral arterial blood flow by 50%.

[7] = related arts; cited from earlier work
[8] = compound 10^-7 mol, Concentration of Ca ion 2.5 mM
[9] = compound 10^-7 mol, Concentration of Ca ion 5.0 mM
[10] = compound 10^-8 mol, Concentration of Ca ion 2.5 mM
[11] = compound 10^-8 mol, Concentration of Ca ion 5.0 mM
[12] = negative inotropic effect, compound concentrations in the table in mol

Row | SMILES | Inhibitory (%) [1, 8] [%] | Inhibitory (%) [1, 9] [%] | Inhibitory (%) [1, 10] [%] | Inhibitory (%) [1, 11] [%] | Change (%) DBP (diastolic blood pressure) [%] | inhibition at 100 µM (left atrium; read-out: Change (%)) [%] | inhibition at 10 µM (left atrium; read-out: Change (%)) [%] | IC50 (left atrium; [12]) [µM] | LD50 at 72 h [2] [mg/kg] | Change (%) VABF [3] [%] | Change (%) FABF [4] [%] | Systolic pressure (change from pre-value) ([5]; 1 hr) [mm Hg] | Systolic pressure (change from pre-value) ([5]; 2 hr) [mm Hg] | Systolic pressure (change from pre-value) ([5]; 4 hr) [mm Hg] | Systolic pressure (change from pre-value) ([5]; 6 hr) [mm Hg] | Systolic pressure (change from pre-value) ([5]; 24 hr) [mm Hg] | effect on cerebral blood flow [7] | also measured
1 | CC1=C(C(=O)OCCN(C)Cc2ccccc2)C(c2cccc([N+](=O)[O-])c2)C(C(=O)OCC2CC2)=C(C)N1 (centres unmarked) [Example 1, 3-cyclopropylmethyl 5-[2-(N-benzyl-N-methylamino)ethyl] 1,4-dihydro-2,6-dimethyl-4-(3-nitrophenyl)pyridine-3,5-dicarboxylate] | 94.7 ± 3.72 | > 100 | 76.1 ± 6.62 | 81.3 ± 5.46 | -9 ± 1 | 15.7 | 7.4 | 320 | 211 | 51 ± 13 | 25 ± 8 |  |  |  |  |  |  | 
2 | CC1=C(C(=O)OCCN(C)Cc2ccc(Cl)cc2)C(c2cccc([N+](=O)[O-])c2)C(C(=O)OCC2CC2)=C(C)N1 (centres unmarked) [Example 3, 3-[2-[N-(4-chlorobenzyl)-N-methylamino]ethyl] 5-cyclopropylmethyl 1,4-dihydro-2,6-dimethyl-4-(3-nitrophenyl)pyridine-3,5-dicarboxylate] |  |  |  |  | -8 ± 1 |  |  |  |  | 56 ± 12 | 23 ± 8 |  |  |  |  |  |  | 
3 | COc1ccc(CN(C)CCOC(=O)C2=C(C)NC(C)=C(C(=O)OCC3CC3)C2c2cccc([N+](=O)[O-])c2)cc1 (centres unmarked) [Example 4, 3-cyclopropylmethyl 5-[2-[N-(4-methoxybenzyl)-N-methylamino]ethyl] 1,4-dihydro-2,6-dimethyl-4-(3-nitrophenyl)pyridine-3,5-dicarboxylate] |  |  |  |  | -6 ± 1 |  |  |  |  | 33 ± 5 | 19 ± 6 |  |  |  |  |  |  | 
4 | COC(=O)C1=C(C)NC(C)=C(C(=O)OCCN(C)Cc2ccccc2)C1c1cccc([N+](=O)[O-])c1 (centres unmarked) [Nicardipine, 1,4-dihydro-2,6-dimethyl-4-(3-nitrophenyl)-pyridine-3,5-dicarboxylic acid 3-2-(N-benzyl-N-methylamino)ethyl 5-methyl ester] | 90.9 ± 12.06 | 83.2 ± 15.93 | 26.5 ± 18.40 | 16.3 ± 21.28 | -10 ± 1 | 25.6 | 13.5 | 34 | 305 | 32 ± 7 | 14 ± 5 | -10.0 ± 2.28 | -5.7 ± 1.61 | -3.0 ± 2.01 | -1.0 ± 1.50 | -4.2 ± 1.88 | high cerebral blood flow increasing action | ED50 [6]: 0.0042 mg/kg; inhibition at 1 µM (left atrium; Concentration of the compound 10^-6 mol, read-out: Change (%)): 3.4%
5 | COC(=O)C1=C(C)NC(C)=C(C(=O)OC)C1c1ccccc1[N+](=O)[O-] [Nifedipine, dimethyl ester of 1,4-dihydro-2,6-dimethyl-4-(2-nitropheny)pyridine-3,5-dicarboxylic acid] | > 100 | > 100 | 63.5 ± 7.33 | 62.3 ± 7.91 |  | 19 | 9.5 |  |  |  |  | -19.3 ± 4.41 | -10.6 ± 3.14 | -4.3 ± 2.70 | -0.1 ± 1.56 | -1.1 ± 1.06 | tendency of causing a relative decrease on cerebral blood flow | pharmaceutical activities [7]: coronary vasodilating action, blood pressure depressing action; also recorded: powerful depressing action; IC50 (left atrium): 120 µM
